In patent US20230018765A1, “A 19-NOR C3,3-DISUBSTITUTED C21-N-PYRAZOLYL STEROID AND METHODS OF USE THEREOF” (Sage Therapeutics, Inc., priority 2019, published 2023):

Experiments:
[1] = system: adult patients diagnosed with MDD (MADRS total score ≥32 and a HAM-D total score ≥22); test: double-blind, randomized placebo-controlled Phase 3 study of Compound 1 in Major Depressive Disorder (efficacy by HAM-D total score, safety and tolerability); type: in vivo, human; details: for overall incidence of patients who experienced AEs: 14-day treatment period and 28-day follow up, placebo 48.9%; for AE incidence: Fatigue: placebo 2.6%; for AE incidence: Sedation / subjects having treatment emergent AEs leading to study drug discontinuation: placebo 3.2%; for AE incidence: Dizziness: placebo 3.7%; for AE incidence: Somnolence: placebo 4.2%; for AE incidence: Nausea: placebo 4.7%; for AE incidence: Diarrhea: placebo 5.3%; for AE incidence: Headache: treatment period and 28-day follow up, placebo 7.4%
Description: Compound 1 was evaluated in a double-blind, randomized placebo-controlled Phase 3 study in Major Depressive Disorder (MDD). The evaluated the efficacy, safety and pharmacokinetics of Compound 1 in adult patients diagnosed with MDD (MADRS total score ≥32 and a HAM-D total score ≥22).
Compound 1 was administered to a patient, either in 20 mg daily doses once a day for 14 days or 30 mg once a day for 14 days.

[2] = system: subjects with MDD; test: HAM-D course after a Compound 1 treatment cycle (response/remission at Day 15, HAM-D at Day 42); type: in vivo, human
[3] = system: GABAA receptors; test: modulation of GABAA receptors; details: synaptic and extrasynaptic GABAA receptors
[4] = system: subjects with MDD; test: Phase 2 study in subjects with MDD / previous clinical trials of Compound 1
[5] = among subjects achieving remission or response at Day 15, Day 42

Which “separation from placebo (HAM-D) of the 20 mg dose” value ([1]; 20 mg once a day for 14 days) does the source give for `C[C@@]1(O)CC[C@H]2[C@H](CC[C@@H]3[C@@H]2CC[C@]2(C)[C@@H](C(=O)Cn4cc(C#N)cn4)CC[C@@H]32)C1` [Compound 1] here?
The value was “did not separate from placebo”.

What about the “tolerability in the trial” value ([1]; 20 mg or 30 mg once a day for 14 days) of the same compound?
Its value is “generally well tolerated”.

What about the “overall incidence of patients who experienced AEs” value ([1]; 20 mg) of the same compound?
Its value is 50.0%.

And the “patients who reported SAEs during follow-up” value ([1]; 20 mg, SAEs related to cocaine ingestion, Day 39)?
The value was “one”.

What about the “AE incidence: Fatigue” value ([1]; 20 mg) of the same compound?
Its value is 1.6%.

And the “AE incidence: Sedation” value ([1]; 20 mg)?
Its value is 5.9%.

And the “subjects having treatment emergent AEs leading to study drug discontinuation” value ([1]; 20 mg)?
The value was 1.6%.

And the “AE incidence: Dizziness” value ([1]; 20 mg)?
Its value is 7.4%.

What about the “AE incidence: Somnolence” value ([1]; 20 mg) of the same compound?
The value was 5.9%.

And the “AE incidence: Nausea” value ([1]; 20 mg)?
The value was 5.3%.

And the “AE incidence: Diarrhea” value ([1]; 20 mg)?
Its value is 5.9%.

And the “AE incidence: Headache” value ([1]; 20 mg)?
Its value is 11.2%.

What about the “onset of effect (HAM-D vs placebo)” value ([1]; 30 mg (n=166)) of the same compound?
The value was “beginning at Day 3”.

What about the “LS Mean Difference from placebo, HAM-D total score, Day 3” value ([1]; 30 mg (n=166) vs placebo (n=157), Day 3, p=0.016) of the same compound?
The value was −1.6.

What about the “AE incidence: Diarrhea” value ([1]; 30 mg (printed 30 rug)) of the same compound?
The value was 6.3%.

What about the “reduction in depressive symptoms in the HAM-D total score at Day 15 (primary endpoint)” value ([1]; 30 mg once a day for 14 days, Day 15, placebo 11.2) of the same compound?
The value was 12.6.

And the “LS Mean Difference, HAM-D total score at Day 15, patients with measurable drug concentrations and HAM-D≥24” value ([1]; 30 mg vs placebo, post-hoc, p=0.017)?
The value was −2.6.

What about the “LS Mean Difference, HAM-D total score at Day 15, patients with HAM-D≥24” value ([1]; 30 mg vs placebo, post-hoc, p=0.032) of the same compound?
The value was −2.3.

And the “LS Mean Difference, HAM-D total score at Day 15, patients with measurable drug concentrations” value ([1]; 30 mg vs placebo, post-hoc, p=0.048)?
Its value is −1.8.

And the “overall incidence of patients who experienced AEs” value ([1]; 30 mg)?
Its value is 54.2%.

What about the “LS Mean Difference from placebo, HAM-D total score, Day 8” value ([1]; 30 mg, Day 8, p=0.008) of the same compound?
Its value is −2.1.

And the “LS Mean Difference from placebo, HAM-D total score, Day 12” value ([1]; 30 mg, Day 12, p=0.018)?
The value was −2.1.

And the “LS Mean Difference from placebo, HAM-D total score, Day 15” value ([1]; 30 mg, Day 15, p=0.115)?
The value was −1.4.

And the “LS Mean Difference from placebo, HAM-D total score, Day 42” value ([1]; 30 mg, Day 42, p=0.807)?
Its value is −0.5.

And the “Change from baseline in HAM-D total score at Day 42” value ([1]; 30 mg, Day 42, placebo −11.7)?
The value was −11.9.

What about the “AE incidence: Fatigue” value ([1]; 30 mg) of the same compound?
Its value is 6.8%.

And the “AE incidence: Sedation” value ([1]; 30 mg)?
Its value is 4.7%.

What about the “subjects having treatment emergent AEs leading to study drug discontinuation” value ([1]; 30 mg) of the same compound?
The value was 2.1%.

And the “AE incidence: Dizziness” value ([1]; 30 mg)?
Its value is 5.7%.

What about the “AE incidence: Somnolence” value ([1]; 30 mg) of the same compound?
The value was 6.8%.

And the “AE incidence: Nausea” value ([1]; 30 mg)?
The value was 3.6%.

What about the “Change from baseline in HAM-D total score at Day 15, patients with HAM-D≥24” value ([1]; 30 mg, post-hoc, n=124, placebo −11.4) of the same compound?
Its value is −13.7.

And the “Change from baseline in HAM-D total score at Day 15, patients with measurable drug concentrations” value ([1]; 30 mg, post-hoc, n=151, placebo −11.2)?
Its value is −13.0.

And the “Change from baseline in HAM-D total score at Day 15, patients with measurable drug concentrations and HAM-D≥24” value ([1]; 30 mg, post-hoc, placebo −11.4)?
Its value is −14.0.

What about the “patients who experienced serious adverse events (SAEs) during treatment” value ([1]; 30 mg, suicide attempt Day 5, bile duct stone after Day 2) of the same compound?
Its value is “Two”.

What about the “patients who reported SAEs during follow-up” value ([1]; 30 mg, syncope and associated injuries, Day 28) of the same compound?
The value was “one”.

And the “AE incidence: Headache” value ([1]; 30 mg)?
The value was 6.3%.

And the “durability of improvements in depressive symptoms, double-blind portion” value ([1]; all treatment groups, through Day 42)?
Its value is “sustained in all treatment groups through Day 42”.

And the “AEs of loss of consciousness” value ([1]; any group)?
Its value is “no ABs of loss of consciousness”.

And the “suicidal ideation or suicidal behavior by Columbia Suicide Severity Rating Scale (C-SSRS)” value ([1]; compared to baseline)?
Its value is “no signal fir increased suicidal ideation or suicidal behavior”.

What about the “durability of improvement in depressive symptoms, long-term follow-up” value ([1]; patients who completed long-term follow-up up to 6 months, preliminary data) of the same compound?
The value was “maintenance of improvement in depressive symptoms”.

What about the “subjects achieving remission or response at Day 15” value ([2]; Day 15) of the same compound?
The value was 78.6%.

What about the “subjects with HAM-D≥22 at Day 42” value [2, 5] of the same compound?
Its value is 6.1%.

What about the “subjects with a HAM-D score of 16 to 21 at Day 42” value [2, 5] of the same compound?
The value was 18.2%.

And the “mode of action at GABAA receptors” value [3]?
The value was “positive allosteric modulator of GABAA receptors”.

And the “efficacy in a Phase 2 study in subjects with MDD” value ([4]; 30 mg per day)?
The value was “efficacious”.

What about the “tolerability in a Phase 2 study in subjects with MDD” value ([4]; 30 mg per day) of the same compound?
Its value is “well-tolerated”.

What about the “adverse effect in previous clinical trials, morning administration” value ([4]; administered in the morning) of the same compound?
The value was “sedation/somnolence observed”.

What about the “tolerability in previous clinical trials, evening administration” value ([4]; given in the evening) of the same compound?
The value was “improved tolerability”.
